Laboratory results published in patent US20220280507A1, “USES OF 5-METHYLTETRAHYDROFOLATE AND ITS COMPOSITION” (Lianyungang Jinkang Hexin Pharmaceutical Co., Ltd., priority 2019, published 2022).
Where two headings read alike, the source gives them in different places.

Columns and labels:
TNF-α = test: Alcoholic fatty liver model, TNF-α in hippocampus tissue (ELISA); type: in vivo, SD rats; conditions: liquor model, n=16
Experimental: According to their weight, they were randomly divided into vehicle control group (purified water, ig), model control group (liquor, 10 ml·Kg−1), positive control group (bicyclol, 50 mg·Kg−1, ig), folic acid calcium salt high-dose group (4 mg·Kg−1), folic acid calcium salt medium-dose group (2 mg·Kg−1), folic acid calcium salt low-dose group (1 mg·Kg−1), in half female and half male, and 16 rats in each group. Purified water was used as a negative control, and bicyclol (place of origin: Beijing Xiehe Pharmaceutical Factory, specification: 25 mg/tablet, batch number: H20040467) was used as a positive control drug. Route of administration: all were administered by oral gavage. Dosage of administration: 1 mg·Kg−1, 2 mg·Kg−1, and 4 mg·Kg−1. Frequency of administration: once a day for 60 consecutive days.
Method of administration: administration started at prescribed doses on the day of modeling for 60 consecutive days and ended at the 60th day. At the same time, rats in each group were weighed every other week during administration period to monitor their body weight changes. On the 61st day, rats were dissected and serum was collected for determination of triglyceride (TG), total cholesterol (TC), malondialdehyde (MDA), superoxide dismutase (SOD) and liver histopathologic examination. The brain tissue of rats was taken out, and hippocampus tissue was separated on ice plate, prepared to homogenate with a mass fraction of 10% with purified water, then the homogenate was centrifuged to obtain supernatant. ELISA was used to detect the levels of inflammatory factors TNF-α and IL-1β in hippocampus tissue with continuous spectrum scanning microplate reader.

[1] = test system: liver injury induced by carbon tetrachloride; conditions: serum day 61, n=6
Experimental: Experiment 3 Protection of 5-Methyltetrahydrofolate Calcium on Liver Injury Induced by Carbon Tetrachloride
30 SPF-grade SD rats were chosen in half female and half male and randomly divided into vehicle control group (vegetable oil), model control group (1.5 ml·kg−1, 20% carbon tetrachloride vegetable oil solvent, intraperitoneal injection every 3 days), 5-methyltetrahydrofolate calcium low-dose group (1mg·Kg−1), 5-methyltetrahydrofolate calcium medium-dose group (2 mg·Kg−1), and 5-methyltetrahydrofolate calcium high-dose group (4 mg·Kg−1) according to their body weight. 20% carbon tetrachloride vegetable oil solvent was used as the inducer, and intraperitoneal injection was performed every 3 days for a total of 60 days. After successful modeling, the administration groups were given a dosage of 5-methyltetrahydrofolate calcium as prescribed above for gavage once a day, and the model group and the normal control group were gavaged once daily with purified water for 60 consecutive days. Blood was taken on the 61st day, and the levels of ALT and AST in serum were detected.

[2] = 1 mg·kg−1·d−1 gavage 60 d after CCl4 modeling
[3] = 2 mg·kg−1·d−1 gavage 60 d after CCl4 modeling
[4] = 4 mg·kg−1·d−1 gavage 60 d after CCl4 modeling

5-methyltetrahydrofolate calcium was tested, and the “TNF-α in hippocampus tissue” value (TNF-α; 1 mg·kg−1·d−1 ig 60 d) was 250.39 ± 32.40 μg · g^−1 prot, the “TNF-α in hippocampus tissue” value (TNF-α; 2 mg·kg−1·d−1 ig 60 d) was 241.32 ± 29.32 μg · g^−1 prot and the “TNF-α in hippocampus tissue” value (TNF-α; 4 mg·kg−1·d−1 ig 60 d) was 220.43 ± 24.34 μg · g^−1 prot. It also gave an ALT [1, 2] of 54.64 ± 20.52 IU/L, an AST [1, 2] of 185.73 ± 63.46 IU/L and an ALT [1, 3] of 50.54 ± 20.12 IU/L. The AST [1, 3] was 156.97 ± 50.35 IU/L, the ALT [1, 4] was 40.84 ± 16.31 IU/L and the AST [1, 4] was 125.87 ± 43.84 IU/L.
